The first assay addresses T1, α7 human nicotinic acetylcholine receptor (α7 nACh receptor) (Homo sapiens, UniProt P36544).
T1 construct: gene CHRNA7; homomeric receptor stably expressed in SH-EP1 cells
In words: Fluo-4 Ca2+ transient potentiation in SH-EP1 cells ([…] ACh); no change in […]-α-bungarotoxin binding. Particulars: SH-EP1, read-out: % potentiation at 10 μM. It is filed as cell-based.
T1 sequence (P36544 23-502): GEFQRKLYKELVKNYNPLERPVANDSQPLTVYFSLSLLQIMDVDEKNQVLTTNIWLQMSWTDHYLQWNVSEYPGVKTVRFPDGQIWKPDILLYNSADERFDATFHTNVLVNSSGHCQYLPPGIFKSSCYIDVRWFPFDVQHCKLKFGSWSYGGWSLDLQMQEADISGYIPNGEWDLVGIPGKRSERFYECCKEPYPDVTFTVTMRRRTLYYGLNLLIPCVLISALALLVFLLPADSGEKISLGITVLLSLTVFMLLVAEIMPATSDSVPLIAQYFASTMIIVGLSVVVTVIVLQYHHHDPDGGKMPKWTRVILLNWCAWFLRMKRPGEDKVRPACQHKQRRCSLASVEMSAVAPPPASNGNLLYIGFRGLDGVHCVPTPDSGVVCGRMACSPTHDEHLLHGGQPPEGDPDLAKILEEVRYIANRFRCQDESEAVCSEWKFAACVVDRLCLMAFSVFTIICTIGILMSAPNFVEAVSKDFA
Consider `O=c1cc(-c2ccc(O)cc2)oc2cc(O)cc(O)c12` [apigenin], for which the activation at 10 µM stood at 48%.
With `O=c1c(-c2ccc(O)cc2)coc2cc(O)cc(O)c12` [genistein], the activation at 10 µM came out at 83%.
In the case of `O=c1c(O)c(-c2ccc(O)c(O)c2)oc2c(O)c(O)cc(O)c12` [gossypetin], the activation at 10 µM was determined as 65%.
For `O=c1c(O)c(-c2ccc(O)cc2)oc2cc(O)cc(O)c12` [kaempferol], the activation at 10 µM came to 81%.
With `O=c1cc(-c2ccc(O)c(O)c2)oc2cc(O)cc(O)c12` [luteolin], the activation at 10 µM is 72%.
For `O=C(CCc1ccc(O)cc1)c1c(O)cc(O)cc1O` [phloretin], the activation at 10 µM came to 112%.

The assay is the same for the next values; noted with them: SH-EP1; read-out: % potentiation at 10 μM.
Turning to `O=c1c(O)c(-c2ccc(O)c(O)c2)oc2cc(O)cc(O)c12` [quercetin], the activation at 10 µM was 73%.

These data come from paper PMC8147998, “Apigenin and Structurally Related Flavonoids Allosterically Potentiate the Function of Human α7-Nicotinic Acetylcholine Receptors Expressed in SH-EP1 Cells” (Cells, 2021).
